IC50 and melting point data for 14 compounds are collected here from paper PMC8820799, “Angiogenesis and anti-leukaemia activity of novel indole derivatives as potent colchicine binding site inhibitors” (Journal of Enzyme Inhibition and Medicinal Chemistry, 2022).

The target in series [1] is T1, Tubulin isolated from porcine brain tissue (Sus scrofa, UniProt P02550+P02554).
T1 construct: purchased Cytoskeleton (Denver, CO), via Beyotime, China; host or cells: porcine brain tissue
Description: Tubulin polymerisation assay. In kind it is biochemical. Particulars: triplicate, mean ± SD; read-out: Tubulin (tubulin inhibitory polymerisation IC50). The protocol: Tubulin polymerisation was determined with the tubulin polymerisation assay kit (Cytoskeleton, Denver, CO which was purchased from Cytoskeleton, Beyotime, China. Tubulin isolated from porcine brain tissue was used in this commercial kit.) It is based on the principal that light is scattered by microtubules to an extent that is proportional to the concentration of the microtubule polymer. Compounds that interact with tubulin will alter the polymerisation of tubulin, and this can be detected using a spectrophotometer. Tubulin polymerisation dynamics was monitored through measuring the change of absorbance at 340 nm every 2 min for 30 min at 37 °C on a spectrophotometer.

For series [2], the system named is transgenic zebrafish (FLK-1:EGFP). Description: Zebrafish angiogenesis assay (ISVs). It counts as in vivo. The note with it: Danio rerio, transgenic zebrafish; triplicate, mean ± SD; read-out: Zebrafish (antiangiogenic activity IC50). The protocol: The transgenic flk: enhanced GFP zebrafish embryos were generated by pair-wise mating, collected and sorted into the 6-well plate (n = 30 per well) with 1 ml of aquaculture water (0.2 g/L of Instant Ocean Salt in distilled water) and raised at 28 °C. Then the embryos staged at 12 h post fertilisation (hpf) were treated with the indicated concentrations of compounds which were added into embryo water. About 30 embryos were screened for each concentration gradient. At 30hpf, the treated embryos were anaesthetised with 0.02% tricaine in embryo water and photographed. The numbers of ISVs were recorded under confocal microscopy. Results were obtained from three independent determinations and presented as mean ± SD.[38]

In the next series the test system is K562. As to the kind of experiment: CCK-8 assay, K562. It counts as cell-based. The note with it: Homo sapiens, leukaemia, CML, CCK-8, 72 h. Here is the method: (§1) Cells were seeded in 96-well plates at a density of 8 × 10^3 per well and exposed to different concentrations of compounds for 72 h. Subsequently, 10 µL CCK8 solution was added to each well and co-incubated for another 3–4 h at 37 °C. The absorbance was determined at 450 nm. Data was calculated with GraphPad Prism5 software.[32]
On the technique in general: Tetrazolium assays rely on reduction of a dye to a coloured formazan, in cell work by metabolically active cells.

Another series relates to Jurkat. Description: CCK-8 assay, Jurkat. It counts as cell-based. The note with it: Homo sapiens, leukaemia, ALL, CCK-8, 72 h. Here is the method: as §1
A further series has as its system CCRF-CEM. Description: CCK-8 assay, CCRF-CEM. In kind it is cell-based. Particulars: Homo sapiens, leukaemia, ALL, CCK-8, 72 h. The protocol: as §1
For the next series, the system named is HuT 78. As to the kind of experiment: CCK-8 assay, HuT 78. Particulars: Homo sapiens, HuT78; leukaemia, ALL; CCK-8, 72 h. In kind it is cell-based. Here is the method:
as §1

In the next series the test system is MV4-11. Description: CCK-8 assay, MV4-11. It counts as cell-based. Particulars: Homo sapiens, leukaemia, AML, CCK-8, 72 h. Here is the method: as §1
A further series deals with THP-1. Description: CCK-8 assay, THP-1. It counts as cell-based. The note with it: Homo sapiens, leukaemia, AML, CCK-8, 72 h. The protocol: as §1
The subject of the next series is HL60. Description: CCK-8 assay, HL60. In kind it is cell-based. Particulars: Homo sapiens, HL-60; leukaemia, APL; CCK-8, 72 h. The protocol:
as §1

T1 sequence (P02554 whole entry): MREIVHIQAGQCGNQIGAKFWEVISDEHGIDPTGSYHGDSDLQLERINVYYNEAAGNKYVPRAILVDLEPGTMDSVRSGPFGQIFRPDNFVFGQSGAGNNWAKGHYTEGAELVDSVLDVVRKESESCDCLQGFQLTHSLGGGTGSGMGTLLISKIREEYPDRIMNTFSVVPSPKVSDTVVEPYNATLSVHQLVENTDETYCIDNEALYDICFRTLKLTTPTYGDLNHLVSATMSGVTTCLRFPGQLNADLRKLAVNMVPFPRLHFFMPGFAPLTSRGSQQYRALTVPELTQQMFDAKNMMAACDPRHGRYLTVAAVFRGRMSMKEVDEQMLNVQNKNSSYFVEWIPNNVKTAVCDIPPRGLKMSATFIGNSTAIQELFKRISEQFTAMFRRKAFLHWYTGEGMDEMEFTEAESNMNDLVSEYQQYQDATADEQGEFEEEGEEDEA
T1 sequence (P02550 whole entry): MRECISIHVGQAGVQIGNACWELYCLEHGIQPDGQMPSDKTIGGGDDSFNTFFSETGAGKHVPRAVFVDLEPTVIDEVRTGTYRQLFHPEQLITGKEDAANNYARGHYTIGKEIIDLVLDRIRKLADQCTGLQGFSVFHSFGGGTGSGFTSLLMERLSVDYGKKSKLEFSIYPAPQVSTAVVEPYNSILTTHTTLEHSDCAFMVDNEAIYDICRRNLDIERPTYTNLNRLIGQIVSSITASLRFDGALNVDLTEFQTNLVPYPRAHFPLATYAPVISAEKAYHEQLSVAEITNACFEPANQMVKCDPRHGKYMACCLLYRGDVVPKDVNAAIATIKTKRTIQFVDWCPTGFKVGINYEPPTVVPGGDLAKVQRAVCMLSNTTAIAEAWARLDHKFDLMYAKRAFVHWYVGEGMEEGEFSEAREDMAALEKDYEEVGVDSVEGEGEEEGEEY

Usually IC50 stands for the point on the concentration scale where inhibition reaches its midpoint. With `COc1cc(C(=O)/C=C/c2ccnc3ccccc23)cc(OC)c1OC` [DYT-1, (E)-3-(quinolin-4-yl)-1–(3,4,5-trimethoxyphenyl)prop-2-en-1-one], the IC50 in series [1] was 25.6 µM; in [2] it was 38.4 µM; in the series on K562, 6.2 µM; with Jurkat, 7.9 µM.

Broadly, the melting point is the temperature, or range, at which the solid turns liquid. Take `O=C(/C=C/c1cn(S(=O)(=O)c2ccccc2)c2ccccc12)c1ccc(C(F)(F)F)cc1` [Compound 28e, (E)-3–(1-(phenylsulfonyl)-1H-indol-3-yl)-1–(4-(trifluoromethyl)phenyl)prop-2-en-1-one]: the melting point fell in the range of 167 to 170 °C. Besides, the IC50 in [1] turned out to be 10.4 ± 0.7 µM. In [2], the IC50 stood at 5.8 ± 2.1 µM.

As to `CCCn1cc(/C=C/C(=O)c2cccc(OC)c2)c2ccccc21` [Compound 27c, (E)-1–(3-Methoxyphenyl)-3–(1-propyl-1H-indol-3-yl)prop-2-en-1-one], the melting point was in the range of 161 to 162 °C. Besides, in series [1], the IC50 stood at 52.1 ± 2.9 µM. Besides, the IC50 in [2] is 18.6 ± 3.2 µM.

With `COc1cc(C(=O)C=Cc2cc3ccccc3o2)cc(OC)c1OC` [Compound 7], the half-inhibitory concentration (IC50) in series [1] was found to be 18.6 ± 0.5 µM; in [2], 29.5 ± 1.5 µM.

As to `COc1cc(C(=O)/C=C/c2cn(C)c3ccccc23)cc(OC)c1OC` [Compound 29a, (E)-3–(1-Methyl-1H-indol-3-yl)-1–(3,4,5-trimethoxyphenyl)prop-2-en-1-one], the melting point lay in the range of 160 to 162 °C. In addition, the IC50 in series [1] was 49.9 ± 8.5 µM. The IC50 in series [2] was found to be 15.7 ± 3.2 µM.

`COc1ccc(/C=C\c2cc(OC)c(OC)c(OC)c2)cc1O` [CA-4, Combretastatin A-4, reference compound]: the IC50 was determined as 0.71 ± 0.11 µM in the series on CCRF-CEM; 0.24 ± 0.04 µM with HuT 78; 0.27 ± 0.01 µM with K562; 0.19 ± 0.02 µM in the series on Jurkat; 0.12 ± 0.03 µM in the series on MV4-11; 0.08 ± 0.01 µM in the series on THP-1. Besides, in the series with HL60, half-maximal inhibition (IC50) required 0.26 ± 0.05 µM.

`COc1ccc(C(=O)/C=C/c2cn(S(=O)(=O)c3ccccc3)c3ccccc23)cc1` [Compound 26e, (E)-1–(4-Methoxyphenyl)-3–(1-(phenylsulfonyl)-1H-indol-3-yl)prop-2-en-1-one] returned a melting point of 165 to 168 °C. For the same compound, the IC50 in series [1] worked out at 58.4 ± 1.7 µM. Besides, the IC50 in [2] came to 35.6 ± 3.2 µM.

For the compound `COc1cc(C(=O)C=Cc2ccc3sc4ccccc4c3c2)cc(OC)c1OC` [Compound 8], the IC50 in series [1] is 45.7 ± 2.3 µM; in [2] it was 68.6 ± 2.1 µM.

Compound `CCn1cc(/C=C/C(=O)c2cc(OC)c(OC)c(OC)c2)c2ccccc21` [Compound 29b, (E)-3–(1-Ethyl-1H-indol-3-yl)-1–(3,4,5-trimethoxyphenyl)prop-2-en-1-one] had a melting point of 155 to 158 °C. Further, the IC50 in series [1] was above 100 µM.

Consider `COc1cc(C(=O)/C=C/c2cn(Cc3ccccc3)c3ccccc23)cc(OC)c1OC` [Compound 29d, (E)-3–(1-Benzyl-1H-indol-3-yl)-1–(3,4,5-trimethoxyphenyl)prop-2-en-1-one], for which the melting point lay in the range of 160 to 163 °C. In addition, the concentration for half-maximal inhibition (IC50) in series [1] stood at 24.8 ± 2.1 µM. The IC50 in series [2] was 6.7 ± 0.5 µM.

For `O=C(/C=C/c1cn(Cc2ccccc2)c2ccccc12)c1ccccc1` [Compound 23d, (E)-3–(1-Benzyl-1H-indol-3-yl)-1-phenylprop-2-en-1-one], the melting point is 161 to 163 °C. Besides, the IC50 in series [1] turned out to be 68.6 ± 3.2 µM.

As for `O=C(/C=C/c1cn(S(=O)(=O)c2ccccc2)c2ccccc12)c1ccc(Cl)cc1` [Compound 25e, (E)-1–(4-chlorophenyl)-3–(1-(phenylsulfonyl)-1H-indol-3-yl)prop-2-en-1-one], the melting point was in the range of 162 to 165 °C. Moreover, the IC50 in [1] is above 100 µM.

Take `COc1cc(C(=O)C=Cc2nc3ccccc3[nH]2)cc(OC)c1OC` [Compound 9]: the IC50 in [1] was 20.8 ± 1.4 µM; in series [2] it was above 100 µM.

Regarding `COc1cc(C(=O)C=Cc2c[nH]c3ccccc23)cc(OC)c1OC` [Compound 6], the IC50 stood at 8.5 ± 1.2 µM in series [1] and 27.8 ± 0.9 µM in series [2].
